Row | melting point [°C] | SMILES
1 | 248 to 249 | CC(C)n1nc(-c2sc(NC(=O)c3c(Cl)cccc3Cl)nc2-c2ccccc2)ccc1=O [Example 49, 2,6-Dichloro-N-[5-(1-isopropyl-6-oxo-1,6-dihydro-3-pyridazinyl)-4-phenyl-1,3-thiazol-2-yl]benzamide]
2 | 226 to 227 | CC(C)n1nc(-c2sc(NC(=O)C3CC3)nc2-c2ccccc2)ccc1=O [Example 33, N-[5-(1-Isopropyl-6-oxo-1,6-dihydro-3-pyridazinyl)-4-phenyl-1,3-thiazol-2-yl]cyclopropanecarboxamide]
3 | 146 to 147 | C=CCNc1nc(-c2ccccc2)c(-c2ccc(=O)n(CC=C)n2)s1 [Example 93, 2-allyl-6-[2-(allylamino)-4-phenyl-1,3-thiazol-5-yl]-3(2H)-pyridazinone]
4 | > 250 | CC(C)NCC(=O)Nc1nc(-c2ccccc2)c(-c2ccc(=O)n(C(C)C)n2)s1.Cl
5 | 200 to 201 | CC(C)n1nc(-c2sc(NC(=O)CCNCc3ccccn3)nc2-c2ccccc2)ccc1=O [Example 124, N-[5-(1-Isopropyl-6-oxo-1,6-dihydro-3-pyridazinyl)-4-phenyl-1,3-thiazol-2-yl]-3-[(2-pyridinylmethyl)amino]propanamide]
6 | 144 to 145 | CC(C)n1nc(-c2sc(C(=O)NCCc3ccccn3)nc2-c2ccc(F)cc2)ccc1=O [Example 237, 4-(4-Fluorophenyl)-5-(1-isopropyl-6-oxo-1,6-dihydro-3-pyridazinyl)-N-[2-(2-pyridinyl)ethyl]-1,3-thiazole-2-carboxamide]
7 | 205 to 206 | CC(C)n1nc(-c2sc(NC(=O)c3ccc(Cl)cc3)nc2-c2ccccc2)ccc1=O [Example 47, 4-Chloro-N-[5-(1-isopropyl-6-oxo-1,6-dihydro-3-pyridazinyl)-4-phenyl-1,3-thiazol-2-yl]benzamide]
8 | 182 to 184 | CC(C)n1nc(-c2sc(NCc3ccccn3)nc2-c2ccccc2)ccc1=O [Example 20, 2-Isopropyl-6-{4-phenyl-2-[(2-pyridinylmethyl)amino]-1,3-thiazol-5-yl}-3(2H)-pyridazinone]
9 | 122 to 123.5 | CC(C)NC(=O)c1nc(-c2ccc(F)cc2)c(-c2ccc(=O)n(C(C)C)n2)s1 [Example 186, 4-(4-fluorophenyl)-N-isopropyl-5-(1-isopropyl-6-oxo-1,6-dihydro-3-pyridazinyl)-1,3-thiazole-2-carboxamide]
10 | 169 to 170.5 | CC(C)n1nc(-c2sc(C(=O)NN(C)C)nc2-c2ccc(F)cc2)ccc1=O [Example 239, 4-(4-Fluorophenyl)-5-(1-isopropyl-6-oxo-1,6-dihydro-3-pyridazinyl)-N′,N′-dimethyl-1,3-thiazole-2-carbohydrazide]
11 | 144 to 145 | CC(C)n1nc(-c2sc(NC(=O)CNCc3ccccc3)nc2-c2ccccc2)ccc1=O [Example 103, 2-(Benzylamino)-N-[5-(1-isopropyl-6-oxo-1,6-dihydro-3-pyridazinyl)-4-phenyl-1,3-thiazol-2-yl]acetamide]
12 | 222 to 223 | CC(C)n1nc(-c2sc(C(N)=O)nc2-c2ccccc2)ccc1=O [Example 161, 5-(1-Isopropyl-6-oxo-1,6-dihydro-3-pyridazinyl)-4-phenyl-1,3-thiazole-2-carboxamide]
13 | 108 to 109 | CCCNC(=O)c1nc(-c2ccccc2)c(-c2ccc(=O)n(C)n2)s1 [Example 170, 5-(1-methyl-6-oxo-1,6-dihydro-3-pyridazinyl)-4-phenyl-N-propyl-1,3-thiazole-2-carboxamide]
14 | 252 to 253 | CC(C)n1nc(-c2sc(NC(=O)CN3CCOCC3)nc2-c2ccccc2)ccc1=O.Cl
15 | 146.5 to 147.5 | CCCNC(=O)c1nc(-c2ccc(F)cc2)c(-c2ccc(=O)n(C(C)C)n2)s1 [Example 175, 4-(4-fluorophenyl)-5-(1-isopropyl-6-oxo-1,6-dihydro-3-pyridazinyl)-N-propyl-1,3-thiazole-2-carboxamide]
16 | 231 to 232.5 | CCn1nc(-c2sc(C(N)=O)nc2-c2ccccc2)ccc1=O [Example 160, 5-(1-Ethyl-6-oxo-1,6-dihydro-3-pyridazinyl)-4-phenyl-1,3-thiazole-2-carboxamide]
17 | 243 to 244 | CC(C)n1nc(-c2sc(NC(=O)COc3ccccc3)nc2-c2ccccc2)ccc1=O [Example 8, N-[5-(1-Isopropyl-6-oxo-1,6-dihydro-3-pyridazinyl)-4-phenyl-1,3-thiazol-2-yl]-2-phenoxyacetamide]
18 | 106.5 to 107.5 | CCCNC(=O)c1nc(-c2ccccc2)c(-c2ccc(=O)n(CC)n2)s1 [Example 171, 5-(1-ethyl-6-oxo-1,6-dihydro-3-pyridazinyl)-4-phenyl-N-propyl-1,3-thiazole-2-carboxamide]
19 | 145.5 to 147 | CC(C)n1nc(-c2sc(C(=O)NC3CC3)nc2-c2cccc(F)c2)ccc1=O [Example 197, N-cyclopropyl-4-(3-fluorophenyl)-5-(1-isopropyl-6-oxo-1,6-dihydro-3-pyridazinyl)-1,3-thiazole-2-carboxamide]
20 | 189 to 190 | CC(C)n1nc(-c2sc(NC(=O)CN3CCCCC3)nc2-c2ccccc2)ccc1=O [Example 132, N-[5-(1 Isopropyl-6-oxo-1,6-dihydro-3-pyridazinyl)-4-phenyl-1,3-thiazol-2-yl]-2-(1-piperidinyl)acetamide]

Row | melting point [°C] | SMILES
21 | 204 to 205 | Br.CCCCNc1nc(-c2ccccc2)c(-c2ccc(=O)n(C(C)C)n2)s1
22 | 163.5 to 165 | CC(C)NC(=O)c1nc(-c2ccccc2)c(-c2ccc(=O)n(Cc3ccccc3)n2)s1 [Example 182, 5-(1-benzyl-6-oxo-1,6-dihydro-3-pyridazinyl)-N-isopropyl-4-phenyl-1,3-thiazole-2-carboxamide]
23 | 253 to 254 | CC(C)n1nc(-c2sc(NC(=O)c3ccc(I)cc3)nc2-c2ccccc2)ccc1=O [Example 51, 4-Iodo-N-[5-(1-isopropyl-6-oxo-1,6-dihydro-3-pyridazinyl)-4-phenyl-1,3-thiazol-2-yl]benzamide]
24 | 198 to 199 | Cc1cccc(C(=O)Nc2nc(-c3ccccc3)c(-c3ccc(=O)n(C(C)C)n3)s2)c1 [Example 42, N-[5-(1-Isopropyl-6-oxo-1,6-dihydro-3-pyridazinyl)-4-phenyl-1,3-thiazol-2-yl]-3-methylbenzamide]
25 | 158 to 160 | CCN(CC)CCNCc1ccc(C(=O)Nc2nc(-c3ccccc3)c(-c3ccc(=O)n(C(C)C)n3)s2)cc1 [Example 142, 4-({[2-(Diethylamino)ethyl]amino}methyl)-N-[5-(1-isopropyl-6-oxo-1,6-dihydro-3-pyridazinyl)-4-phenyl-1,3-thiazol-2-yl]benzamide]
26 | 248 to 250 | CC(C)n1nc(-c2sc(C(N)=O)nc2-c2cccc(F)c2)ccc1=O [Example 164, 4-(3-Fluorophenyl)-5-(1-isopropyl-6-oxo-1,6-dihydro-3-pyridazinyl)-1,3-thiazole-2-carboxamide]
27 | 157 to 159 | CCN(CC)CCNCC(=O)Nc1nc(-c2ccccc2)c(-c2ccc(=O)n(C(C)C)n2)s1.Cl.Cl
28 | 205 to 207 | CC(C)n1nc(-c2sc(NC(=O)Oc3ccccc3)nc2-c2ccccc2)ccc1=O
29 | 176.5 to 177.5 | CC(C)n1nc(-c2sc(C(=O)NCc3ccccn3)nc2-c2ccccc2)ccc1=O [Example 210, 5-(1-isopropyl-6-oxo-1,6-dihydro-3-pyridazinyl)-4-phenyl-N-(2-pyridinylmethyl)-1,3-thiazole-2-carboxamide]
30 | > 250 | Nc1nc(-c2ccccc2)c(-c2ccc(=O)[nH]n2)s1 [Example 84, 6-(2-amino-4-phenyl-1,3-thiazol-5-yl)-3(2H)-pyridazinone]
31 | 157 to 158 | CC(C)n1nc(-c2sc(C(=O)NC3CC3)nc2-c2ccc(F)cc2)ccc1=O [Example 198, N-cyclopropyl-4-(4-fluorophenyl)-5-(1-isopropyl-6-oxo-1,6-dihydro-3-pyridazinyl)-1,3-thiazole-2-carboxamide]
32 | 134 to 136 | CC(C)n1nc(-c2sc(NC(=O)c3ccc(CNCCN4CCCCC4)cc3)nc2-c2ccccc2)ccc1=O [Example 144, N-[5-(1-Isopropyl-6-oxo-1,6-dihydro-3-pyridazinyl)-4-phenyl-1,3-thiazol-2-yl]-4-({[2-(1-piperidinyl)ethyl]amino}methyl)benzamide]
33 | 246 to 248 | CC(C)n1nc(-c2sc(NC(=O)c3ccc(CN(C)C)cc3)nc2-c2ccccc2)ccc1=O [Example 28, 4-[(Dimethylamino)methyl]-N-[5-(1-isopropyl-6-oxo-1,6-dihydro-3-pyridazinyl)-4-phenyl-1,3-thiazol-2-yl]benzamide]
34 | 227 to 229 | CC(C)n1nc(-c2sc(NC(=O)c3ccc4ccccc4c3)nc2-c2ccccc2)ccc1=O [Example 30, N-[5-(1-Isopropyl-6-oxo-1,6-dihydro-3-pyridazinyl)-4-phenyl-1,3-thiazol-2-yl]-2-naphthamide]
35 | 118.5 to 119.5 | CC(C)n1nc(-c2sc(C(=O)NC3CC3)nc2-c2cccc(Cl)c2)ccc1=O [Example 199, 4-(3-chlorophenyl)-N-cyclopropyl-5-(1-isopropyl-6-oxo-1,6-dihydro-3-pyridazinyl)-1,3-thiazole-2-carboxamide]
36 | 233 to 235 | CC(C)n1nc(-c2sc(N)nc2-c2ccccc2F)ccc1=O [Example 79, 6-[2-Amino-4-(2-fluorophenyl)-1,3-thiazol-5-yl]-2-isopropyl-3(2H)-pyridazinone]
37 | 232 to 234 | CC(C)n1nc(-c2sc(NC(=O)CN(C)C)nc2-c2ccccc2)ccc1=O.Cl
38 | 190 to 193 | COC(=O)Cn1nc(-c2sc(N)nc2-c2ccccc2)ccc1=O [Example 89, Methyl [3-(2-amino-4-phenyl-1,3-thiazol-5-yl)-6-oxo-1 (6H)-pyridazinyl]acetate]
39 | 232 to 233 | CCCNC(=O)c1nc(-c2ccccc2)c(-c2ccc(=O)[nH]n2)s1 [Example 169, 5-(6-oxo-1,6-dihydro-3-pyridazinyl)-4-phenyl-N-propyl-1,3-thiazole-2-carboxamide]

Source: US20050004134A1, “Thiazole derivative and pharmaceutical use thereof” (priority 2001, published 2005)
